Several values for one entry are separate records, joined by “and”; a condition that tells them apart may be missing. Identical values can stand only once.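 Growth conditions: 96-well plates. Treatment: test compound, 48 hours, 5 concentrations. Analysis: linear interpolation between bracketing concentrations; unreached endpoints set to highest concentration. GI50: concentration for 50% inhibition of growth. At the TGI there is no net growth.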 Bounds are passed on as bounds.

What all share (test): NCI anticancer screen, dose series, 48 h
In assay [1] the test system is KM12 colon.
In assay [2] the test system is SF-295 CNS.
For assay [3], the system named is LOX IMVI melanoma.
Assay [4] deals with NCI-H23 lung.
Assay [5] concerns SF-268 CNS.
Assay [6] has as its system RXF 393 renal.
Assay [7] concerns RPMI-8226 leukemia.
Assay [8] relates to CAKI-1 renal.
In assay [9] the test system is HL-60(TB) leukemia.
Assay [10] has as its system OVCAR-5 ovarian.

For the molecule `CCOc1ccccc1N=Nc1c(C)[nH]n(-c2nc(-c3ccccc3)cs2)c1=O`, the GI50 in assay [1] was over 100 µM; in [2] it was 28.3 µM; in assay [3] it was over 100 µM; in assay [4], over 74.1 µM; in assay [5] it was 35.4 µM; in [6], 16.4 µM. Further, the GI50 in [7] is over 100 µM; in [8] it was over 54.2 µM; in [9], over 100 µM; in assay [10], over 100 µM. The TGI in [1] is over 100 µM; in [2], over 100 µM; in assay [3], over 100 µM; in [4], over 100 µM; in assay [5] it was over 100 µM; in [6], 38.4 µM. For the same molecule, the TGI in [7], in assay [8], in assay [9] and in assay [10] was over 100 µM each time.

Take `COc1cc(C(=O)NC2CCN(C)CC2)c(F)cc1Nc1ncc2c(n1)N(C1CCCC1)CC(F)(F)C(=O)N2C`: the GI50 in assay [1] was under 0.01 µM; in [2] it was under 0.0176 µM; in assay [3] it was under 0.0186 µM; in [4], under 0.0182 µM; in [5], under 0.025 µM; in assay [6], under 0.0169 µM. Also, the GI50 was under 0.022 µM in assay [7], under 0.0243 µM in assay [8], under 0.01 µM in assay [9] and under 0.0191 µM in [10]. Also, the TGI in assay [1] worked out at 14 µM; in assay [3], 4.96 µM; in [4] it was 3.4 µM; in assay [5], 12.1 µM; in [6], 15.2 µM; in [7] it was 3.26 µM. Besides, the TGI in assay [8] was 3.71 µM; in assay [9], under 0.0197 µM; in assay [10] it was 14.3 µM.

For `O=C(NC[C@H](O)CO)c1ccncc1Nc1ccc(I)cc1F`, the GI50 was 0.111 µM and 0.154 µM in assay [1]; over 41 µM in assay [2]; 0.0913 µM and 0.0707 µM in assay [4]; > 10 µM and 29.9 µM in [5]; 0.678 µM and 1.6 µM in assay [6]; > 10 µM and 28.4 µM in assay [7]. The GI50 in assay [8] was 0.59 µM and 1.38 µM; in assay [9], 0.00228 µM and < 0.01 µM; in assay [10] it was 0.0104 µM and 0.0151 µM. In addition, the TGI in assay [1] is over 100 µM; in assay [2], over 100 µM; in assay [3], > 10 µM and 22.4 µM; in [4], over 71.8 µM; in assay [5], over 100 µM; in [6] it was > 10 µM and 29.1 µM. In addition, the TGI in [7] is over 100 µM; in [8], over 100 µM; in [9] it was over 54.2 µM; in assay [10], over 100 µM.

With `COc1c2c(nc3ccccc13)-c1cc3c(c(=O)n1C2)COC(=O)C3(O)CC(=O)N1CCOCC1` (stereo not drawn), the TGI in [1] stood at 57.5 µM; in assay [2] it was 31.7 µM; in assay [3], 16.5 µM; in assay [4], 8.05 µM; in assay [5], 26.7 µM; in assay [6], 26.9 µM. The TGI in assay [7] worked out at 82 µM; in [8], 54 µM; in assay [9], 17.6 µM; in [10], 63.1 µM.

Turning to `O=C(/C=C/c1ccc([N+](=O)[O-])cc1)c1ccc2c3c(cccc13)CC2`, the GI50 in assay [1] is 3.1 µM; in assay [2] it was 6.23 µM; in [3] it was 4.26 µM; in assay [4], 29.1 µM; in [5], 8.18 µM; in [6], 4.47 µM. Moreover, the GI50 in assay [7] was 1.64 µM; in assay [8], 9.69 µM; in assay [9] it was 4.51 µM; in assay [10], over 64.2 µM. Moreover, the TGI in [1] is 14.2 µM; in assay [2], over 100 µM; in assay [3], 17.6 µM; in assay [4], over 100 µM; in [5], over 100 µM; in assay [6], 21.3 µM. In addition, the TGI in [7] was 4.84 µM; in assay [8] it was over 100 µM; in assay [9] it was 29 µM; in [10], over 100 µM.

`Nc1[nH]nc2nc(-c3cccs3)cc(C(F)(F)F)c12`: the GI50 in [1] is 12 µM; in assay [2], over 25 µM; in [3], over 25 µM; in assay [4] it was over 25 µM; in assay [5], over 25 µM; in assay [6], 18.9 µM. For the same molecule, the GI50 was over 25 µM in assay [7], over 20.3 µM in assay [8], over 25 µM in assay [9] and over 25 µM in [10]. For the same molecule, the TGI in assay [1], in assay [2], in assay [3], in assay [4], in [5] and in assay [6] was over 25 µM in each case. In addition, the TGI in assay [7], in [8], in [9] and in assay [10] was over 25 µM in each case.

For the molecule `Nc1nc(Nc2ccc(C3CCC(N4CCOCC4)CC3)cc2)nn1-c1ccccn1` (stereo not drawn), the GI50 in assay [1] was 0.18 µM; in assay [2] it was 2.92 µM; in [3], 3.24 µM; in [4], 2.61 µM; in assay [5] it was 2.93 µM; in assay [6], 2.03 µM. Moreover, the GI50 in [7] is 2.57 µM; in assay [8] it was 2.44 µM; in [9] it was 2.55 µM; in assay [10] it was 4.17 µM. Moreover, the TGI is 38 µM in assay [1]; 10.9 µM in [2]; 9.37 µM in assay [3]; 47.7 µM in [4]; over 100 µM in assay [5]; 5.77 µM in assay [6]. Also, the TGI was 6.1 µM in assay [7], over 52.2 µM in assay [8], 9.96 µM in assay [9] and over 100 µM in assay [10].

As to `C[C@]12CCC3[C@@H](CC[C@@H]4c5nonc5CC[C@]34C)C1C/C(=N/O)C2=O` (stereo partly drawn), the TGI in assay [1], in assay [2], in [3], in assay [4], in assay [5] and in [6] was over 100 µM throughout. Further, the TGI in assay [7] was over 100 µM; in assay [8], over 100 µM; in assay [9], 13.3 µM; in [10], over 100 µM.

For the origin of these results see PubChem BioAssay (NCI).
